Data as given in PubChem BioAssay (NCI).
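These data come from cells grown in 96-well plates and exposed to compound for 48 hours at five concentrations. TGI marks complete inhibition of growth.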

How the values were obtained:
Experiment in all cases: inhibition of tumour cell growth, NCI panel, 48 h
[1] = system: UACC-62 melanoma
[2] = system: A498 renal
[3] = system: NCI/ADR-RES ovarian
[4] = system: TK-10 renal
[5] = system: T-47D breast
[6] = system: MOLT-4 leukemia
[7] = system: COLO 205 colon
[8] = system: HT29 colon
[9] = system: SK-MEL-2 melanoma
[10] = system: SN12C renal
[11] = system: HCC-2998 colon
[12] = system: ACHN renal
[13] = system: NCI-H460 lung
[14] = system: IGROV1 ovarian
[15] = system: KM12 colon
[16] = system: OVCAR-8 ovarian
[17] = system: MALME-3M melanoma
[18] = system: HCT-116 colon
[19] = system: HCT-15 colon
[20] = system: HOP-62 NSCLC

Structure (SMILES) | TGI [1] | TGI [2] | TGI [3] | TGI [4] | TGI [5] | TGI [6] | TGI [7] | TGI [8] | TGI [9] | TGI [10] | TGI [11] | TGI [12] | TGI [13] | TGI [14] | TGI [15] | TGI [16] | TGI [17] | TGI [18] | TGI [19] | TGI [20]
CCOC(CCNCC(OCC)OCC)OCC | > 10 µM | > 10 µM | > 10 µM | > 10 µM | > 10 µM | > 10 µM | > 10 µM | > 10 µM | > 10 µM | > 10 µM | > 10 µM | > 10 µM | > 10 µM | > 10 µM | > 10 µM | > 10 µM | > 10 µM | > 10 µM | > 10 µM | > 10 µM
Cc1ccc(S(=O)(=O)N/N=C/C(=C/c2ccc(Cl)cc2)CC(/C=N/NS(=O)(=O)c2ccc(C)cc2)=C\c2ccc(Cl)cc2)cc1 | 27.4 µM | 29 µM | 94.3 µM | 45.6 µM | 19.2 µM | 6.62 µM | 16.9 µM | 24.1 µM | 24.9 µM | 35 µM | 8.98 µM | 19.1 µM | 30.3 µM | 35.7 µM | 47.2 µM | 12.8 µM | 22 µM | 18.9 µM | 12.3 µM | 70.8 µM
COc1ccc(C(C)NNC(=O)c2ccncc2)c(OC)c1 (stereo not drawn) | > 100 µM | > 100 µM | > 100 µM | > 100 µM | > 100 µM | > 100 µM | > 100 µM | > 100 µM | > 100 µM | > 100 µM | > 100 µM | > 100 µM | > 100 µM | > 100 µM | > 100 µM | > 100 µM | > 100 µM | > 100 µM | > 100 µM | > 100 µM
CCOC(=O)C1(Cc2ccc3c(c2)CCC3)Cc2cc3c(cc2C1)CCC3 | > 100 µM | > 100 µM | > 100 µM | > 100 µM | 50.7 µM | 33 µM | > 100 µM | 37.9 µM | > 100 µM | > 100 µM | 64.4 µM | > 100 µM | 93.5 µM | > 100 µM | > 100 µM | > 100 µM | > 100 µM | > 100 µM | > 100 µM | > 100 µM
CC(=O)c1c2c(cc3c1CC1(Cc4ccccc4C1=O)C3)CCC2 (stereo not drawn) | – | > 100 µM | 53.3 µM | > 100 µM | 49.3 µM | 29.1 µM | 30.7 µM | > 100 µM | 92 µM | > 100 µM | > 100 µM | > 100 µM | > 100 µM | > 100 µM | 49 µM | 89.1 µM | 51.5 µM | 66.6 µM | > 100 µM | > 100 µM
CCOC(=O)C1=CC(C)(C(=O)OCC)Nc2c(nc(OC)n(C)c2=O)N1 (stereo not drawn) | – | > 10 µM | > 10 µM | > 10 µM | > 10 µM | > 10 µM | > 10 µM | > 10 µM | > 10 µM | > 10 µM | > 10 µM | > 10 µM | > 10 µM | > 10 µM | > 10 µM | > 10 µM | > 10 µM | > 10 µM | > 10 µM | > 10 µM
O=C(O)c1n[nH]nc1Cl | > 100 µM | > 100 µM | > 100 µM | > 100 µM | > 100 µM | – | > 100 µM | > 100 µM | > 100 µM | > 100 µM | > 100 µM | > 100 µM | > 100 µM | > 100 µM | > 100 µM | > 100 µM | > 100 µM | > 100 µM | > 100 µM | > 100 µM
CCC(C)(C)/C(CC(O)(C(F)(F)F)C(F)(F)F)=N\O | > 100 µM | > 100 µM | > 100 µM | > 100 µM | > 100 µM | > 100 µM | > 100 µM | > 100 µM | > 100 µM | > 100 µM | > 100 µM | > 100 µM | > 100 µM | > 100 µM | > 100 µM | – | > 100 µM | > 100 µM | > 100 µM | > 100 µM
O=C(CC(=O)Nc1cccc(C(=O)O)c1)Nc1cccc(C(=O)O)c1 | > 100 µM | > 100 µM | > 100 µM | > 100 µM | > 100 µM | > 100 µM | > 100 µM | > 100 µM | > 100 µM | > 100 µM | > 100 µM | > 100 µM | > 100 µM | > 100 µM | > 100 µM | > 100 µM | – | > 100 µM | > 100 µM | > 100 µM
CCC(=O)NC(Nc1cccc(F)c1C)(C(F)(F)F)C(F)(F)F | > 100 µM | > 100 µM | > 100 µM | > 100 µM | > 100 µM | > 100 µM | > 100 µM | > 100 µM | > 100 µM | – | > 100 µM | > 100 µM | > 100 µM | > 100 µM | > 100 µM | > 100 µM | > 100 µM | > 100 µM | > 100 µM | > 100 µM
COCCOCc1nc(C#N)c(N)o1 | > 100 µM | > 100 µM | > 100 µM | > 100 µM | > 100 µM | > 100 µM | > 100 µM | > 100 µM | > 100 µM | > 100 µM | > 100 µM | > 100 µM | > 100 µM | > 100 µM | > 100 µM | – | > 100 µM | > 100 µM | > 100 µM | > 100 µM
